Laboratory results as given in US11136370B2, “Compositions and methods for thrombin generation assay” (The Scripps Research Institute, priority 2016, dated 2021).

Key:
[1] = full anticoagulant dosage; cited from earlier work
[2] = biological target: FXa generated by Russel's viper venom (RVV) FX activator (Homo sapiens, UniProt P00742); assay: FVIII activation by FXa generated by Russel's viper venom FX activator; format: biochemical
Protocol: Thrombin was quantified with a fluorogenic substrate for calculation of % inhibition. […] Reactions were initiated by 100 pM FXa with 50 pM rTF as the phospholipid surface (top); or the preformed complex of 50 pM TF, 100 pM iFVIIa, 100 pM FXa, 5 nM NAPc2 (middle); or 50 pM TF/200 pM FVIIa/135 nM FX (bottom) in mixtures of 0.7 nM FVIII, 3 nM FV, 200 nM lepirudin, 10 nM TFPI, and 2.5 mM CaCl2 incubated for 120 s at 37° C. […] Endogenous thrombin potential (ETP, right) was calculated from the area under the TG curve (n=2).
In some experiments, prothrombin was omitted from reactions and 200 nM lepirudin was added to inactivate potentially contaminating thrombin. […] A stable complex with FXa as the only active protease was prepared with 50 pM rTF, 100 pM FVIIa-S195A (iFVIIa), 100 pM FXa and 5 nM NAPc2 incubated for 120 s at 37° C. FVIII activation by this complex was examined in reactions including FVIII, FV and lepirudin incubated for 120 s.

FXa WT = biological target: T1, FXa WT (Homo sapiens, UniProt P00742); assay: FVIIIa generation by FXa WT in stable complex with TF-iFVIIa-NAPc2; format: biochemical; details: 1 nM rivaroxaban
T1 construct: TF-associated FVIIa has converted FX into FXa active protease

thrombin generation (TG) = format: biochemical, human
Protocol: TG in PRP or reconstituted PRP was evaluated as known to those skilled in the art. Native PRP was prepared from blood collected into final 12.9 mM trisodium citrate by centrifugation at 250 g for 10 min at 25° C. The platelet count was adjusted to 180×10^3/μl by dilution with homologous PPP obtained by centrifuging PRP for 10 min at 1,500 g. CTI was added at 30-50 μg/ml depending on calibrated potency as assessed by FXIIa inhibition. Reconstituted PRP was prepared with washed platelets prepared from normal PRP by adding ⅕th volume of acid citrate-dextrose (71 mM citric acid, 85 mM trisodium citrate, and 111 mM dextrose, pH 4.5) and 5 U/ml apyrase; following centrifugation at 1,500 g for 10 minutes at 25° C., the platelet pellet was resuspended into PPP lacking FVII (George King Bio-Medical) or FIX (Haematologic Technologies) to give a final platelet count of 180·103/μl PRP was mixed with varying concentrations of rTF and/or 20 pM FIXa in 96-well microtiter plates. The reaction was started by adding 18 mM CaCl2 with 360 μM of the thrombin substrate benzyloxycarbonyl-glycyl-glycyl-L-arginine coupled to the fluorogenic group 7-amido-4-methylcoumarin (Gly-Gly-Arg-AMC; Bachem Americas, Torrance, Calif.). Fluorescence was measured continuously at 37° C. for up to 40 min in a spectrofluorometer (355/460 nm excitation/emission). The rate of fluorescence intensity increase as a function of time (dF/dt) was calculated with Turbo Delphi 2006 (Borland Software Corporation, Austin, Tex.) and converted to thrombin-equivalent concentration (nM) using a calibration curve. The endogenous thrombin potential (ETP) of samples, i.e. total generated thrombin activity, was determined from the area under the TG curve. When specified, TG was measured with a discontinuous 2-stage assay with a detection limit of 5 pM. For this, TG was induced by 0.15 pM rTF and 18 mM CaCl2 in reconstituted FVII-deficient PRP including 30 μg/ml CTI with 400 pM WT FVIIa or iFVIIa without or with 20 pM FIXa. After incubation for up to 11 min at 37° C., reactions were terminated by adding 20 mM EDTA and generated thrombin was measured using the highly sensitive thrombin substrate H-D-CHA-Ala-Arg-AMC.2AcOH (Pefafluor TH, Pentapharm, Basel, Switzerland) at 50 μM concentration. In other experiments, TG was induced by TFiFVIIa-FXa-TFPI or TF-iFVIIa-FXa-NAPc2. These stable complexes were pre-formed by incubating 5 nM FXa, 10 nM TF, 10 nM iFVIIa and 40 nM TFPI or NAPc2 in the presence of 2.5 mM CaCl2 for 2 min at 37° C. Complexes were added into FVII-deficient PRP, followed by incubation for 8 min at 37° C.
PRP was prepared from blood collected into trisodium citrate (final concentration 0.0129 M) by centrifugation for at 250 g for 10 min at 25° C.; the platelet count was adjusted at 180.103 per μl by diluting with homologous platelet-poor plasma (PPP) obtained by centrifuging PRP for an additional 10 min at 1,500 g. When indicated, CTI was added at 30 to 50 μg/ml depending on calibrated potency measured by FXIIa inhibition. Reconstituted PRP was prepared by adding normal washed platelets into PPP (without or with CTI) lacking FVII, FVIII (both from George King Bio-Medical, Overland Park, Kans.) or FIX (Haematologic Technologies). […] generation in PRP was measured as described by Hemker et al. 53 μl of PRP was mixed in 96-well microtiter plates with 15 μl of a solution containing rTF and/or one of the intrinsic coagulation pathway proteases—FXIIa, FXIa or FIXa—to achieve the indicated final concentrations. Antibodies or inhibitors were also added at this point at the concentration indicated for each specific case. The reaction was started by adding between 15 and 20 μl of 100 mM CaCl2 and 2 mM fluorogenic substrate, benzyloxycarbonyl-glycyl-glycyl-L-arginine-7-amido-4-methylcoumarin (Gly-Gly-Arg-AMC; Bachem Americas, Torrance, Calif.).

[3] = biological target: T2, pre-activated FXa either free or in a NAPc2-stabilized complex with TF-iFVIIa (Homo sapiens, UniProt P00742); assay: FVIII activation (FVIIIa generation, WB) by pre-activated FXa, free or in NAPc2-stabilized complex; format: biochemical; details: therapeutic concentrations, 50-450 nM
T2 construct: purchased Haematologic Technologies (FXa); Siemens Healthcare Diagnostics (rTF, Dade Innovin)
Protocol: (D) WB analysis (representing 2) of FVIIIa generation by pre-activated or de novo generated FXa and its inhibition by increasing concentrations of AT/penta. Reactions (37° C.) initiated by 200 pM FXa or 20 pM FVIIa with 50 nM FX into mixtures of 400 pM TF, 0.7 nM FVIII, 200 nM lepirudin without (top, incubation 60 s) or with (bottom, incubation 120 s) 3 nM FV/50 nM FIX. (E) Quantification (relative to non-inhibited control) of FVIIIa generated as in D (bottom) calibrated with known FVIIIa quantities (n=6-8 by nascent FXa, 4-6 by pre-formed FXa). […]
Coagulation reaction products were separated by reducing sodium dodecyl sulfate-polyacrylamide gel electrophoresis (SDS-PAGE), except for the analysis of FVIII activation in the presence of anti-FVIIa MoAbs that was performed under non-reducing conditions. […] Quantitative infrared detection of FVIIIa and FVa was obtained with IRDye 800CW-conjugated anti-mouse IgG or streptavidin followed by analysis with the Odyssey infrared imager (Li-COR, Lincoln, Nebr.). Concentrations were calculated by calibration with known quantities of FVIIIa and FVa. […]

[4] = Plasma concentration in treated patients; format: in vivo; details: human, oral, n=10, 2 hours after drug intake

Sequence of FXa generated by Russel's viper venom (RVV) FX activator (P00742 41-179 limits assumed): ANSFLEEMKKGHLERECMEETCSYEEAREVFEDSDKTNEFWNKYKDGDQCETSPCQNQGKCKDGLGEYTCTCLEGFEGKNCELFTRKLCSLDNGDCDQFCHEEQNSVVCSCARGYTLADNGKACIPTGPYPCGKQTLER
Sequence of FXa generated by Russel's viper venom (RVV) FX activator (P00742 235-488 limits assumed): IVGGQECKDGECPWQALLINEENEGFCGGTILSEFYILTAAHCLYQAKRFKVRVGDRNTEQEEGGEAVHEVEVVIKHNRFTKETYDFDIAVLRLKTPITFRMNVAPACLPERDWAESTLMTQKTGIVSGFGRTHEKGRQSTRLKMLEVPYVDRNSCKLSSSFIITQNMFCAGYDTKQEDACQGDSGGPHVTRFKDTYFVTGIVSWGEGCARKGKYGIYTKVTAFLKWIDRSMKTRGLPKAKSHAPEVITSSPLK
T2 sequence (P00742 41-179 limits assumed): as the sequence (P00742 41-179 limits assumed) above
T2 sequence (P00742 235-488 limits assumed): as the sequence (P00742 235-488 limits assumed) above
T1 sequence (P00742 41-179 limits assumed): as the sequence (P00742 41-179 limits assumed) above
T1 sequence (P00742 235-488 limits assumed): as the sequence (P00742 235-488 limits assumed) above

## O=C(NC[C@H]1CN(c2ccc(N3CCOCC3=O)cc2)C(=O)O1)c1ccc(Cl)s1 [Rivaroxaban]
[1]
  peak plasma concentration: 500 nM
[2]; TFPI and rivaroxaban combined, rivaroxaban as high as 450 nM
  FVIIIa generation, initiator RVV-X: substantial inhibition
[2]; equivalent FXa levels as with TF-FVIIa
  effect on FVIII activation by RVV-generated FXa: inhibited
FXa WT
  effect on FVIII activation by FXa WT: almost completely inhibited
Thrombin generation (TG); low rivaroxaban concentrations
  inhibition of TG in the presence of MoAb 12C7: more pronounced inhibition
Thrombin generation (TG); recalcified PRP containing CTI
  difference in dose response between rivaroxaban and apixaban: ~3 fold
  effect on TF-induced thrombin generation: inhibited
[3]
  inhibition of FVIII activation by pre-activated FXa: ~90%
[4]
  concentration at 2 h: 312 nM
